Assay results from the NIST ThermoML archive (doi:10.1016/j.tca.2007.09.001).

Assay: molar heat capacity at constant pressure
Conditions: 101.33 kPa, Crystal, Large sample (1 g) DSC

[Co+3].[Nd+3].[O-2].[O-2].[O-2] [cobalt(III) neodymium(III) oxide]
Conditions	molar heat capacity at constant pressure [J/K/mol]
130 K	57.2
140 K	62.7
150 K	67.7
160 K	72.3
170 K	76.4
180 K	80.2
190 K	83.5
200 K	86.5
210 K	89.2
220 K	91.6
230 K	93.8
240 K	95.8
250 K	97.8
260 K	98.7
270 K	100.5
280 K	102.3
290 K	104.1
298.15 K	105.8
300 K	105.9
325 K	110.3
350 K	116
375 K	120.4
400 K	122.9
425 K	124.8
450 K	127.1
475 K	130.3
500 K	134.5
525 K	139.2
550 K	144.1
575 K	148.3
600 K	151.4
625 K	153.2
650 K	153.3
675 K	152.1
700 K	149.9
725 K	147.1
750 K	144.3
775 K	141.9
800 K	140.3
825 K	139.4
850 K	138.5
